Entries after “also recorded” stand apart in the source; their conditions may differ. Square brackets hold non-standard residues; d marks the D form. Ends that are not written are not given here. Lys(N3) = [N-]=[N+]=NCCCC[C@H](N)C(=O)O
test system: proline iminopeptidase (PIP); test: Terminal amino acid cleavage of peptide-linker conjugates by PIP (LCMS); format: biochemical; conditions: monitored by LCMS
Description: (§1) The peptide-linker conjugates were evaluated for amino acid cleavage at peptide N-termini by N-terminal aminopeptidases (Table 6, below).
(§2) The peptide-linker conjugates shown in Table 6 were incubated with either proline iminopeptidase (“PIP”) or rat aminopeptidase N (“Rat APN”), and peptide cleavage was monitored by LCMS. All other cleavage reactions were measured in a similar manner.

Substance	Cleaved by PIP
8: peptide-linker conjugate: FPFPFP{LYS(N3)} (SEQ ID NO. 230), oligo linker (FPFPFP[Lys(N3)]; also: oligo linker, attachment not given here) [Entry 8]	Yes
9: peptide-linker conjugate: DPDPDP{LYS(N3)} (SEQ ID NO. 231), oligo linker (DPDPDP[Lys(N3)]; also: oligo linker, attachment not given here) [Entry 9]	Yes
10: peptide-linker conjugate: KPKPKP{LYS(N3)} (SEQ ID NO. 232), oligo linker (KPKPKP[Lys(N3)]; also: oligo linker, attachment not given here) [Entry 10]	No
11: peptide-linker conjugate: KPKPKP{LYS(N3)} (SEQ ID NO. 233), PEG4 linker (KPKPKP[Lys(N3)]; also: PEG4 linker, attachment not given here) [Entry 11]	Yes

biological target: T1, rat aminopeptidase N (Rat APN) (Rattus norvegicus, UniProt P15684); test: Terminal amino acid cleavage of peptide-linker conjugates by Rat APN (LCMS); format: biochemical; conditions: monitored by LCMS
T1 sequence (P15684 1-965): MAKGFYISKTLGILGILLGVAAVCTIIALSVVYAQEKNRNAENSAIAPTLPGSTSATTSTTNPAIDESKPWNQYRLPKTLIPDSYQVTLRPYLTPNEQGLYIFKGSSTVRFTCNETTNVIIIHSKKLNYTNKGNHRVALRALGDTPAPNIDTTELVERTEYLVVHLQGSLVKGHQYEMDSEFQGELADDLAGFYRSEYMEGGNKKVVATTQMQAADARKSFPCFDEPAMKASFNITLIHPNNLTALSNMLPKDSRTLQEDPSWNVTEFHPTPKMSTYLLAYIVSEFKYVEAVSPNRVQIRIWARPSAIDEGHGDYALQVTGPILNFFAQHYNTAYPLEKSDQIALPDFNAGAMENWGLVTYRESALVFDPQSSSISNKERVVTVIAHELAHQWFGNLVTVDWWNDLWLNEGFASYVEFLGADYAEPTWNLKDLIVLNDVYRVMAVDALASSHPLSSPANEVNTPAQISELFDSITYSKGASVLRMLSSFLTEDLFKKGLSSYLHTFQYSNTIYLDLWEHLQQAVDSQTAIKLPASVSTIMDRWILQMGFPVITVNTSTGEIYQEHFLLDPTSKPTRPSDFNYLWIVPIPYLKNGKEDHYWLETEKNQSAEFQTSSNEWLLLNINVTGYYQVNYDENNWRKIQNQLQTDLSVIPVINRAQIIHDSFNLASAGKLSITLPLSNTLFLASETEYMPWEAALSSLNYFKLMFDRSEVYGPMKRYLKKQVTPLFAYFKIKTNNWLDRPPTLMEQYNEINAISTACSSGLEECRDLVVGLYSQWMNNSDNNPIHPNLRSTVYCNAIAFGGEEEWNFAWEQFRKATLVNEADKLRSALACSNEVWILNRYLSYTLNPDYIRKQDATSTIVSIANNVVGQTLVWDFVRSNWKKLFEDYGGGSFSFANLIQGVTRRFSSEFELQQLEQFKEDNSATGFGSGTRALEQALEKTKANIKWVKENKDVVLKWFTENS
Description: as §1, §2

Substance	Cleaved by Rat APN
3: peptide-linker conjugate: KKMKKM{LYS(N3)} (SEQ ID NO. 225), oligo-PEG linker (KKMKKM[Lys(N3)]; also: oligo-PEG linker, attachment not given here) [Entry 3]	No
2: peptide-linker conjugate: KKMKKM{LYS(N3)} (SEQ ID NO. 224), oligo linker (KKMKKM[Lys(N3)]; also: oligo linker, attachment not given here) [Entry 2]	No
6: peptide-linker conjugate: FFMFFM{LYS(N3)} (SEQ ID NO. 228), oligo linker (FFMFFM[Lys(N3)]; also: oligo linker, attachment not given here) [Entry 6]	Yes
7: peptide-linker conjugate: AAMAAM{LYS(N3)} (SEQ ID NO. 229), oligo linker (AAMAAM[Lys(N3)]; also: oligo linker, attachment not given here) [Entry 7]	Yes
4: peptide-linker conjugate: KKMKKM{LYS(N3)} (SEQ ID NO. 226), PEG4 linker (KKMKKM[Lys(N3)]; also: PEG4 linker, attachment not given here) [Entry 4]	Yes
Entry 5: peptide-linker conjugate: DDMDDM{LYS(N3)} (SEQ ID NO. 227), oligo linker (DDMDDM[Lys(N3)]; also: oligo linker, attachment not given here)	Yes

test system: amino acid at a terminal position of a polypeptide; test: not given; conditions: Table 2; amino acid identity at a terminal position (phosphotyrosine also internal); inferred from literature and/or demonstrated by the inventors; cited from earlier work

Substance	Binding Pref.
H. sapiens p62 fragment 1-310: SEQ ID NO: 120	K, R, H,; also recorded: W, F, Y
H. sapiens p62 fragment 126-180: SEQ ID NO: 122	K, R, H,; also recorded: W, F, Y
H. sapiens p62 fragment 1-180: SEQ ID NO: 121	K, R, H,; also recorded: W, F, Y
Rattus norvegicus p62 protein: SEQ ID NO: 124	K, R, H,; also recorded: W, F, Y
H. sapiens Src tyrosine kinase SH2 domain: SEQ ID NO: 118	phospho-Y

Reference: patent US12065466B2, “Methods and compositions for protein sequencing” (Quantum-Si Incorporated, priority 2020, dated 2024)
